Assay results reported in PubChem BioAssay (NCI).
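Briefly, cells in 96-well plates were exposed to five compound concentrations for 48 h, and endpoints were estimated by linear interpolation. GI50 marks 50% less growth. Definition used: TGI = concentration required for complete inhibition of growth.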

Key:
Assay in all cases: inhibition of tumour cell growth, NCI panel, 48 h
[1] = system: PC-3 prostate
[2] = system: MOLT-4 leukemia
[3] = system: A498 renal
[4] = system: COLO 205 colon
[5] = system: HCT-116 colon
[6] = system: MALME-3M melanoma
[7] = system: OVCAR-4 ovarian
[8] = system: NCI-H460 lung
[9] = system: A549 NSCLC
[10] = system: U251 CNS

SMILES: CCC(=C(c1ccc(OCCN2CCCCC2)cc1)c1ccc(OCCN2CCCCC2)cc1)c1ccc(Cl)cc1
- GI50 [1]: > 16.7 µM
- TGI [1]: > 16.7 µM
- GI50 [2]: 2.77 µM
- TGI [2]: > 16.7 µM
- GI50 [3]: > 16.7 µM
- TGI [3]: > 16.7 µM
- GI50 [4]: 3.59 µM
- TGI [4]: 9.01 µM
- GI50 [5]: 1.56 µM
- TGI [5]: > 16.7 µM
- GI50 [6]: 2.72 µM
- TGI [6]: 5.21 µM
- GI50 [7]: > 16.7 µM
- TGI [7]: > 16.7 µM
- GI50 [8]: 5.7 µM
- TGI [8]: > 16.7 µM
- GI50 [9]: 7.42 µM
- TGI [9]: > 16.7 µM
- GI50 [10]: 3.42 µM
- TGI [10]: > 16.7 µM

SMILES: O=C(N/N=C/c1ccc(Cl)cc1)c1ccc(NC(=O)c2ccccn2)cc1
- GI50 [1]: 17 µM
- TGI [1]: > 100 µM
- GI50 [2]: > 100 µM
- TGI [2]: > 100 µM
- GI50 [3]: 44.9 µM
- TGI [3]: > 100 µM
- GI50 [4]: > 100 µM
- TGI [4]: > 100 µM
- GI50 [5]: 11.8 µM
- TGI [5]: > 100 µM
- GI50 [6]: 33.1 µM
- TGI [6]: > 100 µM
- GI50 [7]: 3.07 µM
- TGI [7]: 10.6 µM
- GI50 [8]: 8.2 µM
- TGI [8]: 24.6 µM
- GI50 [9]: 15.9 µM
- TGI [9]: 68 µM
- GI50 [10]: 6.45 µM
- TGI [10]: 23.3 µM

SMILES: CC1(C)N=C(N)N=C(N)N1c1ccc(OCCCNC(=O)Nc2ccc(S(=O)(=O)F)cc2)c(Cl)c1
- GI50 [1]: 0.165 µM
- TGI [1]: > 73 µM
- GI50 [2]: 0.386 µM
- TGI [2]: > 100 µM
- GI50 [3]: 4.57 µM
- TGI [3]: 99.4 µM
- GI50 [4]: 0.854 µM
- TGI [4]: > 100 µM
- GI50 [5]: 0.0613 µM
- TGI [5]: > 100 µM
- GI50 [6]: 2.02 µM
- TGI [6]: > 100 µM
- GI50 [7]: 4.05 µM
- TGI [7]: > 100 µM
- GI50 [8]: 0.0486 µM
- TGI [8]: > 37.6 µM
- GI50 [9]: 0.0732 µM
- TGI [9]: > 100 µM
- GI50 [10]: 0.211 µM
- TGI [10]: > 100 µM

SMILES: Cc1ccc(N)c(S)c1
- TGI [1]: 28.6 µM
- TGI [2]: 47 µM
- TGI [3]: 38.6 µM
- TGI [4]: 52.9 µM
- TGI [5]: 46.8 µM
- TGI [6]: 82.6 µM
- TGI [7]: 43.5 µM
- TGI [8]: 49.9 µM
- TGI [9]: 40.6 µM
- TGI [10]: 28.5 µM

SMILES: COc1ccc(C2=NN(C(N)=S)C(c3ccc4c(c3)OCO4)C2)cc1 (stereo not drawn)
- GI50 [1]: 4.33 µM
- TGI [1]: > 100 µM
- GI50 [2]: 3.02 µM
- TGI [2]: 34.5 µM
- GI50 [3]: 2.24 µM
- TGI [3]: 9.07 µM
- GI50 [4]: 3.39 µM
- TGI [4]: 11.5 µM
- GI50 [5]: 2.96 µM
- TGI [5]: 22.9 µM
- GI50 [6]: 3.62 µM
- TGI [6]: 43.9 µM
- GI50 [7]: 3.4 µM
- TGI [7]: > 100 µM
- GI50 [8]: 2.6 µM
- TGI [8]: 6.83 µM
- GI50 [9]: 3.19 µM
- TGI [9]: > 100 µM
- GI50 [10]: 3.05 µM
- TGI [10]: 19.6 µM

SMILES: C[N+]1([O-])C2CCC1CC(OC(=O)C(CO)c1ccccc1)C2 (stereo not drawn)
- TGI [1]: > 100 µM
- TGI [2]: > 100 µM
- TGI [3]: > 100 µM
- TGI [4]: > 100 µM
- TGI [5]: > 100 µM
- TGI [6]: > 100 µM
- TGI [7]: > 100 µM
- TGI [8]: > 100 µM
- TGI [9]: > 100 µM
- TGI [10]: > 100 µM

SMILES: COc1cc(/C=C/C(=O)c2cccc(-n3cc(-c4ccccc4)[nH]c3=O)c2)cc(OC)c1OC
- GI50 [1]: 3.26 µM
- TGI [1]: 20.7 µM
- GI50 [2]: 1.8 µM
- TGI [2]: > 100 µM
- GI50 [3]: 2.65 µM
- TGI [3]: 6.63 µM
- GI50 [4]: 1.51 µM
- TGI [4]: 2.83 µM
- GI50 [5]: 0.332 µM
- TGI [5]: 1.2 µM
- GI50 [6]: 1.31 µM
- TGI [6]: 3.56 µM
- GI50 [7]: 1.88 µM
- TGI [7]: 5.07 µM
- GI50 [8]: 1.4 µM
- TGI [8]: 2.69 µM
- GI50 [9]: 4.03 µM
- TGI [9]: > 100 µM
- GI50 [10]: 0.63 µM
- TGI [10]: 1.94 µM

SMILES: O=C(NCc1cn(Cc2cccc(Oc3ccccc3)c2)nn1)c1cccnc1Nc1ccc(F)cc1
- GI50 [1]: 20.4 µM
- TGI [1]: > 100 µM
- GI50 [2]: > 100 µM
- TGI [2]: > 100 µM
- GI50 [3]: 13.7 µM
- TGI [3]: 95.1 µM
- GI50 [4]: 6.22 µM
- TGI [4]: > 100 µM
- GI50 [5]: 5.02 µM
- TGI [5]: > 100 µM
- GI50 [6]: 15.1 µM
- TGI [6]: > 100 µM
- GI50 [7]: 23.4 µM
- TGI [7]: > 100 µM
- GI50 [8]: 5.25 µM
- TGI [8]: > 100 µM
- GI50 [9]: 6.11 µM
- TGI [9]: > 100 µM
- GI50 [10]: 7.12 µM
- TGI [10]: > 100 µM

SMILES: Cc1c2cnccc2c(C)c2c1c1ccccc1n2CCOC(=O)c1ccccc1
- TGI [1]: > 100 µM
- TGI [2]: 25.4 µM
- TGI [3]: 32.2 µM
- TGI [4]: 47 µM
- TGI [5]: 28.2 µM
- TGI [6]: 28.8 µM
- TGI [7]: 49.3 µM
- TGI [8]: 16 µM
- TGI [9]: 43.1 µM
- TGI [10]: 44.1 µM

SMILES: O=c1c2ccccc2nc(-c2cccc([N+](=O)[O-])c2)n1O
- TGI [1]: 98.7 µM
- TGI [2]: > 100 µM
- TGI [3]: > 85.1 µM
- TGI [4]: > 100 µM
- TGI [5]: > 100 µM
- TGI [6]: > 100 µM
- TGI [7]: > 100 µM
- TGI [8]: > 100 µM
- TGI [9]: > 100 µM
- TGI [10]: > 100 µM

SMILES: Nc1ccc(/C=C/c2ccc3ncccc3c2)cc1
- GI50 [1]: 7.29 µM
- TGI [1]: > 100 µM
- GI50 [2]: > 100 µM
- TGI [2]: > 100 µM
- GI50 [3]: > 100 µM
- TGI [3]: > 100 µM
- GI50 [4]: > 100 µM
- TGI [4]: > 100 µM
- GI50 [5]: > 100 µM
- TGI [5]: > 100 µM
- GI50 [6]: > 100 µM
- TGI [6]: > 100 µM
- GI50 [7]: > 100 µM
- TGI [7]: > 100 µM
- GI50 [8]: > 100 µM
- TGI [8]: > 100 µM
- GI50 [9]: > 100 µM
- TGI [9]: > 100 µM
- GI50 [10]: > 100 µM
- TGI [10]: > 100 µM

SMILES: O=C1NN2CC(c3ccccc3)=NN=C2c2ccccc21
- GI50 [1]: 12.6 µM
- TGI [1]: 33.8 µM
- GI50 [2]: 11.1 µM
- TGI [2]: > 100 µM
- GI50 [3]: 87.5 µM
- TGI [3]: > 100 µM
- GI50 [4]: 20.3 µM
- TGI [4]: 41 µM
- GI50 [5]: 17.4 µM
- TGI [5]: 36.7 µM
- GI50 [6]: 32.1 µM
- TGI [6]: 87.6 µM
- GI50 [7]: 61 µM
- TGI [7]: > 100 µM
- GI50 [8]: 30.3 µM
- TGI [8]: 92.6 µM
- GI50 [9]: 28.6 µM
- TGI [9]: 70.8 µM
- GI50 [10]: 18 µM
- TGI [10]: 33.9 µM

SMILES: C=C(CO)C(=O)OC1CC(=C)C2CC(O)C(C)C2C2OC(=O)C(=C)C12 (stereo not drawn)
- TGI [1]: > 100 µM
- TGI [2]: 64.6 µM
- TGI [3]: > 100 µM
- TGI [4]: 90.4 µM
- TGI [5]: > 100 µM
- TGI [6]: 41.7 µM
- TGI [7]: > 100 µM
- TGI [8]: > 100 µM
- TGI [9]: > 100 µM
- TGI [10]: 64.2 µM

SMILES: C=CC1(C)CCC2C(=CCC3C2(C)CC(O)C(O)C3(C)COC2OC(CO)C(O)C(O)C2O)C1 (stereo not drawn)
- TGI [1]: > 100 µM
- TGI [2]: > 100 µM
- TGI [3]: > 100 µM
- TGI [4]: > 100 µM
- TGI [5]: > 100 µM
- TGI [6]: > 100 µM
- TGI [7]: > 100 µM
- TGI [8]: > 100 µM
- TGI [9]: > 100 µM
- TGI [10]: > 100 µM

SMILES: CC(=O)/C(=C\c1ccc(Cl)cc1)c1ccccc1
- GI50 [1]: 0.0852 µM
- TGI [1]: > 100 µM
- GI50 [2]: 0.124 µM
- TGI [2]: > 100 µM
- GI50 [3]: 0.0309 µM
- TGI [3]: 0.378 µM
- GI50 [4]: 0.141 µM
- TGI [4]: 0.474 µM
- GI50 [6]: 43.2 µM
- TGI [6]: > 100 µM
- GI50 [7]: 0.382 µM
- TGI [7]: > 100 µM
- GI50 [8]: 0.0845 µM
- TGI [8]: 13.5 µM
- GI50 [9]: 0.255 µM
- TGI [9]: > 100 µM
- GI50 [10]: 0.0842 µM
- TGI [10]: > 100 µM
